The source made the active and inactive calls.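 Rule for the calls: active = half-maximal concentration for the rise in caspase light signal at or below ten times the top tested dose; inconclusive = flat fit between 30% and 70% activity, or unreliable curve fit; inactive = the rest.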
Test system: MEF A1-2A-BIM cells, caspase 3/7 luminescence, 3 h
Experiment: inducers of caspase signal in A1-dependent MEFs – cell-based, luminescence, retest, A1 inhibitor project, dose response (AID 2765)

Row | SMILES | EC50
1 | O=C(NC1CCCCC1)c1cccc2c1C(=O)c1ccc(-c3ccc(OC(F)(F)F)cc3)cc1S2(=O)=O | 27.5 µM
2 | O=C(N/N=C/c1ccc(Cl)cc1Cl)c1ccc2nc[nH]c2c1 | > 35 µM (inactive)
3 | CC(C)(C)C1CCc2onc(C(=O)Nc3cccc(O)c3)c2C1 (centres undefined) | > 35 µM (inactive)
4 | COc1ccccc1C(=O)NC(=O)COC(=O)CCS(=O)(=O)c1ccc(C)cc1 | > 35 µM (inactive)
5 | O=C(O)c1cccc(CSc2nc(-c3ccc(Cl)cc3)cc(C(F)(F)F)n2)c1 | > 35 µM (inactive)
6 | Cc1cc(C(=O)CCl)c(C)n1CCc1ccc(Cl)cc1 | > 35 µM (inactive)
7 | CC(C)CC(NC(N)=O)C(=O)OCC(=O)Nc1ccc(SC(F)F)cc1 (centres undefined) | > 35 µM (inactive)
8 | COc1ccc(S(=O)(=O)Nc2ccccc2C(=O)NC2CC2)cc1NC(C)=O | > 35 µM (inactive)
9 | COc1ccc(N2CCN(C(=O)C3CCN(C(=O)c4ccc([N+](=O)[O-])cc4)CC3)CC2)cc1 | > 35 µM (inactive)
10 | CCOc1cc2c(cc1OCC)C(c1ccccc1)N(c1ccccc1)C(=O)C2 (centres undefined) | > 35 µM (inactive)
11 | O=C(Nc1ccc([N+](=O)[O-])cn1)c1cc(-c2cccc(Br)c2)nc2ccccc12 | > 35 µM (inactive)
12 | Nc1ccccc1SC(C[N+](=O)[O-])c1ccccc1 (centres undefined) | > 35 µM (inactive)
13 | CCOc1ccc(OCC(=O)N(CCC2=CCCCC2)c2c(N)n(Cc3ccccc3)c(=O)[nH]c2=O)cc1 | 19.1 µM
14 | O=C(O)Cc1ccc(NC(=O)C(c2ccccc2)c2ccccc2)cc1 | > 35 µM (inactive)
15 | Cc1cccc[n+]1CC(=O)c1ccccc1 | > 35 µM (inactive)
16 | c1ccc2c(CNc3ccc(CNc4ncn[nH]4)cc3)cccc2c1 | > 35 µM (inactive)
17 | COc1ccc(S(N)(=O)=O)cc1C(=O)OCCCOc1ccc(F)cc1 | > 35 µM (inactive)
18 | O=C1CC(C(=O)Nc2ccccc2)C2(CCCCC2)O1 (centres undefined) | > 35 µM (inactive)
19 | Cc1cc(N2CCN(c3ccccc3)CC2)nc(-c2ccccc2)n1 | > 35 µM (inactive)
20 | CCc1cccc(C)c1Nc1nc2ccccc2n2cnnc12 | > 35 µM (inactive)
21 | Cc1ccc2c(c1)C(=O)C(=O)N2Cc1ccc(Br)cc1 | > 35 µM (inactive)
22 | CCN(C(=O)CCN1C(=O)c2ccccc2S1(=O)=O)c1ccccc1 | > 35 µM (inactive)
23 | O=C(O)CCN1C(=O)/C(=C\c2ccncc2)SC1=S | > 35 µM (inactive)
24 | O=C(N/N=C/c1ccccc1O)C1CC(=O)N(c2ccc(F)cc2)C1 (centres undefined) | > 35 µM (inactive)

Row | SMILES | EC50
25 | Cc1ccc(C(C[N+](=O)[O-])c2c(C)[nH]n(-c3ccccc3)c2=O)cc1 (centres undefined) | > 35 µM (inactive)
26 | CC(=O)c1cc(C#N)c(SCC(=O)Nc2nccs2)nc1C | > 35 µM (inactive)
27 | CN1CCc2cccc(Cl)c2CC1 | > 35 µM (inactive)
28 | O=C1C2CCCN2C(c2cccc(Br)c2)N1c1ccc(F)cc1 (centres undefined) | > 35 µM (inactive)
29 | COc1ccc(OC)c2sc(N(CCCN(C)C)C(=O)c3ccc(S(=O)(=O)N4CCc5ccccc5C4)cc3)nc12 | > 35 µM (inactive)
30 | CN1CCN(CCCNC(=O)c2ccc3c(Cl)c4c(nc3c2)CCCC4)CC1 | > 35 µM (inactive)
31 | C=CCNC(=O)c1ccccc1NC(=O)COc1ccccc1 | > 35 µM (inactive)
32 | CCOC(=O)CN(Cc1ccccc1)C(=O)OC(C)(C)C | > 35 µM (inactive)
33 | N#C/C(=C\c1ccc(OCc2ccccc2)cc1)C(=O)Nc1nc2c(s1)CCN(Cc1ccccc1)C2 | > 35 µM (inactive)
34 | Cc1cc(C)n(-c2nc(Nc3ccccc3C)nc(-n3nc(C)cc3C)n2)n1 | > 35 µM (inactive)
35 | NS(=O)(=O)c1ccc(N/N=C/c2cn(-c3ccccc3)nc2-c2ccccc2)c([N+](=O)[O-])c1 | 27.1 µM
36 | COc1ccc(CNCc2ccc([N+](=O)[O-])cc2)cc1OC | > 35 µM (inactive)
37 | CC(=O)Nc1ccc(NC(=O)C(C)OC(=O)/C=C/c2cn(-c3ccccc3)nc2-c2cccnc2)cc1 (centres undefined) | 17.1 µM
38 | COc1ccc(-c2nc(NC(=O)c3n[nH]c(=O)c4ccccc34)sc2C)cc1 | > 35 µM (inactive)
39 | O=C(c1ccco1)N1CCCN(Cc2nc(-c3ccc4c(c3)OCO4)no2)CC1 | > 35 µM (inactive)
40 | CN(C)c1ccc(NC(=O)C2CCCN(S(=O)(=O)c3ccccc3)C2)cc1 (centres undefined) | > 35 µM (inactive)
41 | Cc1[nH]nc2nc(SCC(=O)NCCC3=CCCCC3)n(-c3ccc(Br)cc3)c(=N)c12 | 13.9 µM
42 | Cc1cc(C)n(CCC(=O)N/N=C/c2ccc(Cl)c([N+](=O)[O-])c2)n1 | > 35 µM (inactive)
43 | COC(=O)C1CSC(c2ccc(Cl)cc2)N1C(=O)c1ccccc1 (centres undefined) | > 35 µM (inactive)
44 | CN(CC(O)COC(c1ccccc1)c1ccccc1)C1CCCCC1 (centres undefined) | > 35 µM (inactive)
45 | COc1cc2c(cc1OC)C(c1ccccc1Br)NC(=O)C2 (centres undefined) | > 35 µM (inactive)
46 | O=C(Nc1ccccc1C(=O)N1CCCCCC1)c1ccc(Cl)cc1 | > 35 µM (inactive)
47 | CCN1CCN(CC(=O)Nc2cc(F)ccc2C)CC1 | > 35 µM (inactive)
48 | O=C(C1=C[C@H](c2coc3ccccc3c2=O)C[C@H](OCc2ccc(CO)cc2)O1)N1CCN(Cc2ccccc2)CC1 | > 35 µM (inactive)

Row | SMILES | EC50
49 | Cc1ccccc1/C=C/C(=O)c1ccc([N+](=O)[O-])o1 | > 35 µM (inactive)
50 | Cc1n[nH]c(C)c1S(=O)(=O)N1CCC(C(=O)O)CC1 | > 35 µM (inactive)
51 | CCc1ccccc1NC(=O)C(CC)Sc1nc2cc3c(cc2c(=O)n1Cc1ccco1)OCO3 (centres undefined) | > 35 µM (inactive)
52 | CCOc1ccc2nc(NCCNC(=O)Nc3cccc(C)c3)c(C#N)cc2c1 | 35.7 µM
53 | C=C(C(=O)Oc1ccccc1C(C)(C)C)c1ccccc1 | 15.9 µM
54 | Cc1cccc(NC(=O)CSc2nc(C)c(CC(=O)c3ccc(Br)cc3)c(C)c2C#N)c1C | > 35 µM (inactive)
55 | Cc1onc(-c2c(Cl)cccc2Cl)c1C(=O)N=S(C)(=O)c1ccccc1 (centres undefined) | > 35 µM (inactive)
56 | CC1(C(=O)NCC2CC2)C=CC2(CCCCC2)N1C(=O)c1ccccc1 (centres undefined) | > 35 µM (inactive)
57 | C[C@H](CO)N1C[C@H](C)[C@@H](CN(C)C(=O)NC2CCCCC2)Oc2c(NS(=O)(=O)c3cn(C)cn3)cccc2C1=O | > 35 µM (inactive)
58 | CC(=O)Nc1ccc(SCCN2CC[C@@H](C(C)(C)C)CCC2=O)cc1 | > 35 µM (inactive)
59 | CN(C)CC#CCCCCCCC#CCN(C)C | > 35 µM (inactive)
60 | CN(c1ccccc1C(=O)Nc1cccc(C(F)(F)F)c1)S(C)(=O)=O | > 35 µM (inactive)
61 | COc1ccc2nc(SCC(=O)N3CCN(c4ccc(F)cc4)CC3)c(C#N)cc2c1 | > 35 µM (inactive)
62 | Cc1ccc(SCCNC(=S)Nc2cc(C)ccc2C)cc1 | > 35 µM (inactive)
63 | CCOc1cc(/C=C2/C(=N)N3C=CSC3=NC2=O)ccc1OCCCOc1ccccc1C | 18 µM
64 | CCOC(=O)/C=c1\s/c(=C\c2ccc(C#N)cc2)c(=O)n1CC(=O)Nc1cccc(C)c1C | 3.13 µM
65 | CC(=O)n1nc2nc(C)cc(C)c2c1N | > 35 µM (inactive)
66 | Cc1c(Cl)cccc1NC(=O)CN1CCN(CCN=CC2=C(O)CC(c3ccccc3)CC2=O)CC1 (centres undefined) | > 35 µM (inactive)
67 | CCCCc1ccc(NC(=O)CN(C)CC(=O)Nc2ccccc2Cl)cc1 | > 35 µM (inactive)
68 | COc1cc(OC)cc(C(=O)Nc2ccc(S(=O)(=O)N3CCOCC3)cc2)c1 | > 35 µM (inactive)
69 | CC(NC(=O)c1cccc(OC2CCN(C3CCN(C)CC3)CC2)c1)c1ccccc1 (centres undefined) | > 35 µM (inactive)
70 | Cc1nnc(SCC(=O)NN2C(=O)NC3(CCCCC3)C2=O)s1 | > 35 µM (inactive)
71 | CN1C2CCC1/C(=C/c1ccccn1)C(=O)/C2=C\c1ccccn1 | > 35 µM (inactive)
72 | CCOC(=O)N1CCN(C(=O)c2ccc3nc(N4CCC(C)CC4)sc3c2)CC1 | > 35 µM (inactive)

Row | SMILES | EC50
73 | CCC(=O)c1ccc(N2CCN(C(=O)Cc3ccccc3)CC2)c(F)c1 | > 35 µM (inactive)
74 | CSc1ccc(S(=O)(=O)N2CCC(C(=O)NCCc3ccccc3)CC2)cc1 | > 35 µM (inactive)
75 | CCc1ccc(C2C3=C(CC(C)(C)CC3=O)Nc3c2c(=O)[nH]c2nc(C)nn32)cc1 (centres undefined) | > 35 µM (inactive)
76 | O=C(NCc1ccccc1)c1ccc(C(=O)N(C2CCCCC2)C2CCCCC2)cc1 | > 35 µM (inactive)
77 | O=C(NCCc1ccccc1)C1CCCN1C(=O)Nc1ccc(F)cc1 (centres undefined) | > 35 µM (inactive)
78 | CC(=O)c1ccc(N(C(=O)c2csnn2)C(C(=O)NC(C)(C)C)c2cccs2)cc1 (centres undefined) | > 35 µM (inactive)
79 | O=C(CCC1N=C2c3ccccc3N=C(SCC(=O)NCC3CCCO3)N2C1=O)NCc1ccc(F)cc1 (centres undefined) | > 35 µM (inactive)
80 | COc1ccc(N/C(=N/c2nc(C)cc(C)n2)NC(=O)Nc2ccc(Cl)c(Cl)c2)c(OC)c1 | > 35 µM (inactive)
81 | CC1(C)OC(=O)C(=Cc2ccc(-c3ccc(S(N)(=O)=O)cc3)o2)C(=O)O1 | > 35 µM (inactive)
82 | COc1ccc(OC[C@@H](O)CNC(=O)c2cccc3c2C(=O)c2ccc(-c4ccc(F)cc4OCc4ccccc4)cc2S3(=O)=O)cc1 | > 35 µM (inactive)
83 | COC(=O)C1=C(c2ccc(F)cc2F)C[C@@H]2CC[C@H]1N2C(=O)N1CCC(O)CC1 | > 35 µM (inactive)
84 | COC(=O)c1ccc(NC(=O)CCN2CCN(c3ccccc3)CC2)cc1 | > 35 µM (inactive)
85 | Cc1cc(C)cc(Cn2ncc(Cl)c(Cl)c2=O)c1 | > 35 µM (inactive)
86 | COC(=O)C(C)Oc1cc(OC(C)C(=O)OC)c2c(-c3ccccc3)cc(=O)oc2c1 (centres undefined) | > 35 µM (inactive)
87 | O=C(NCCO)C(=O)Nc1cc2c3c(c1)CCN3C(=O)CC2 | > 35 µM (inactive)
88 | O=C(O)c1ccccc1SCCS(=O)(=O)c1ccc(Cl)cc1Cl | > 35 µM (inactive)
89 | CC(C)[C@H](NS(=O)(=O)c1ccccc1F)C(=O)OCC(=O)Nc1cccc(S(N)(=O)=O)c1 | > 35 µM (inactive)
90 | O=C(N=Nc1c(O)[nH]c2ccc([N+](=O)[O-])cc12)c1cc(-c2ccccc2Cl)nc2ccccc12 | > 35 µM (inactive)
91 | COc1ccc(CCNCC(C)c2ccccc2)cc1 (centres undefined) | > 35 µM (inactive)
92 | CCOCCCNC(=O)c1ccc(N2CC3CC(C2)c2cccc(=O)n2C3)c(NC(=O)Nc2cccc(OC)c2)c1 (centres undefined) | > 35 µM (inactive)
93 | CC(C)(C)OC(=O)n1cc(CCO)c2ccccc21 | > 35 µM (inactive)
94 | COc1ccccc1CCCNC(=O)C1CCC(=O)N(Cc2ccccc2F)C1 (centres undefined) | > 35 µM (inactive)

Source: PubChem BioAssay AID2765 (Broad Institute, 2010)
